Measured values from the supplement of paper PMC10307832.

What was measured:
Assay in all cases: relative viability (nuclei count vs DMSO), 5 days (fraction); higher = more cells survive
PC-14 = system: PC-14
Procedure, shortened: (§1)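 Lung cancer cell lines were seeded in 1536-well plates and dosed by pin tool the next day, with either a single drug or a fixed anchor-drug dose combined with five library-drug doses (not always all listed) spaced in √10 steps. Five days later, one step fixed the cells and stained their nuclei (final 0.05% Triton X-100, 1% formaldehyde, 1 ug/ml Hoechst), and nuclei were counted on 4× images. Relative viability is the nuclei count in treated wells divided by the count in vehicle wells, and each value is the median of duplicate plates.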

H3255 = system: H3255
Procedure, shortened: as §1

SW 1573 = system: SW 1573
Procedure, shortened: as §1

NCI-H1915 = system: NCI-H1915
Procedure, shortened: as §1

BEN = system: BEN
Procedure, shortened: as §1

NCI-H358 = system: NCI-H358
Procedure, shortened: as §1

NCI-H661 = system: NCI-H661
Procedure, shortened: as §1

NCI-H1993 = system: NCI-H1993
Procedure, shortened: as §1

NCI-H727 = system: NCI-H727
Procedure, shortened: as §1

NCI-H2347 = system: NCI-H2347
Procedure, shortened: as §1

HOP-62 = system: HOP-62
Procedure, shortened: as §1

NCI-H2023 = system: NCI-H2023
Procedure, shortened: as §1

NCI-H2342 = system: NCI-H2342
Procedure, shortened: as §1

NCI-H2085 = system: NCI-H2085
Procedure, shortened: as §1

NCI-H2126 = system: NCI-H2126
Procedure, shortened: as §1

EMC-BAC-2 = system: EMC-BAC-2
Procedure, shortened: as §1

NCI-H647 = system: NCI-H647
Procedure, shortened: as §1

NCI-H1563 = system: NCI-H1563
Procedure, shortened: as §1

LXF-289 = system: LXF-289
Procedure, shortened: as §1

NCI-H2009 = system: NCI-H2009
Procedure, shortened: as §1

SK-LU-1 = system: SK-LU-1
Procedure, shortened: as §1

NCI-H322M = system: NCI-H322M
Procedure, shortened: as §1

NCI-H1650 = system: NCI-H1650
Procedure, shortened: as §1

LCLC-97TM1 = system: LCLC-97TM1
Procedure, shortened: as §1

For `COc1cc(N2CCC(C(N)=O)CC2)ccc1Nc1nc(N)c(Cl)c(Nc2ccccc2S(=O)(=O)C(C)C)n1` [HG-5-88-01] + Cc1nc(Nc2ncc(C(=O)Nc3c(C)cccc3Cl)s2)cc(N2CCN(CCO)CC2)n1 [Dasatinib] (partner 0.075 µM), the relative viability (PC-14; first compound 0.04 µM) was 0.234, the relative viability (PC-14; first compound 0.1265 µM) was 0.185 and the relative viability (PC-14; first compound 0.4 µM) was 0.0685. It also gave a relative viability (PC-14; first compound 1.265 µM) of 0.0374, a relative viability (PC-14; first compound 4 µM) of 0.0307 and a relative viability (H3255; first compound 0.04 µM) of 0.338. For the same compound, the relative viability (H3255; first compound 0.1265 µM) was 0.411, the relative viability (H3255; first compound 0.4 µM) was 0.355 and the relative viability (H3255; first compound 4 µM) was 0.2. For the same compound, the relative viability (SW 1573; first compound 0.04 µM) was 0.425, the relative viability (SW 1573; first compound 0.1265 µM) was 0.426 and the relative viability (SW 1573; first compound 0.4 µM) was 0.353. For the same compound, the relative viability (SW 1573; first compound 1.265 µM) was 0.279, the relative viability (SW 1573; first compound 4 µM) was 0.266 and the relative viability (NCI-H1915; first compound 0.04 µM) was 0.347. For the same compound, the relative viability (NCI-H1915; first compound 0.1265 µM) was 0.316, the relative viability (NCI-H1915; first compound 0.4 µM) was 0.295 and the relative viability (NCI-H1915; first compound 1.265 µM) was 0.314. For the same compound, the relative viability (NCI-H1915; first compound 4 µM) was 0.239, the relative viability (BEN; first compound 0.04 µM) was 0.227 and the relative viability (BEN; first compound 0.1265 µM) was 0.337. The relative viability (BEN; first compound 0.4 µM) was 0.291, the relative viability (BEN; first compound 1.265 µM) was 0.319 and the relative viability (BEN; first compound 4 µM) was 0.26. For the same compound, the relative viability (NCI-H358; first compound 0.04 µM) was 0.142, the relative viability (NCI-H358; first compound 0.1265 µM) was 0.153 and the relative viability (NCI-H358; first compound 0.4 µM) was 0.164. For the same compound, the relative viability (NCI-H358; first compound 1.265 µM) was 0.11, the relative viability (NCI-H358; first compound 4 µM) was 0.138 and the relative viability (NCI-H661; first compound 0.04 µM) was 0.939. For the same compound, the relative viability (NCI-H661; first compound 0.1265 µM) was 0.941, the relative viability (NCI-H661; first compound 0.4 µM) was 0.791 and the relative viability (NCI-H661; first compound 1.265 µM) was 0.514. The relative viability (NCI-H661; first compound 4 µM) was 0.664, the relative viability (NCI-H1993; first compound 0.04 µM) was 0.633 and the relative viability (NCI-H1993; first compound 0.1265 µM) was 0.569. For the same compound, the relative viability (NCI-H1993; first compound 0.4 µM) was 0.502, the relative viability (NCI-H1993; first compound 1.265 µM) was 0.475 and the relative viability (NCI-H1993; first compound 4 µM) was 0.581. The relative viability (NCI-H727; first compound 0.04 µM) was 0.335, the relative viability (NCI-H727; first compound 0.1265 µM) was 0.334 and the relative viability (NCI-H727; first compound 0.4 µM) was 0.282. The relative viability (NCI-H727; first compound 1.265 µM) was 0.173, the relative viability (NCI-H727; first compound 4 µM) was 0.217 and the relative viability (NCI-H2347; first compound 0.04 µM) was 0.267. It also gave a relative viability (NCI-H2347; first compound 0.1265 µM) of 0.319, a relative viability (NCI-H2347; first compound 0.4 µM) of 0.318 and a relative viability (NCI-H2347; first compound 1.265 µM) of 0.303. For the same compound, the relative viability (NCI-H2347; first compound 4 µM) was 0.295, the relative viability (HOP-62; first compound 0.04 µM) was 0.682 and the relative viability (HOP-62; first compound 0.1265 µM) was 0.606. It also gave a relative viability (HOP-62; first compound 0.4 µM) of 0.487, a relative viability (HOP-62; first compound 1.265 µM) of 0.444 and a relative viability (HOP-62; first compound 4 µM) of 0.253. For the same compound, the relative viability (NCI-H2023; first compound 0.04 µM) was 0.646, the relative viability (NCI-H2023; first compound 0.1265 µM) was 0.515 and the relative viability (NCI-H2023; first compound 0.4 µM) was 0.318. For the same compound, the relative viability (NCI-H2023; first compound 1.265 µM) was 0.196, the relative viability (NCI-H2023; first compound 4 µM) was 0.207 and the relative viability (NCI-H2342; first compound 0.04 µM) was 0.281. It also gave a relative viability (NCI-H2342; first compound 0.1265 µM) of 0.336, a relative viability (NCI-H2342; first compound 0.4 µM) of 0.308 and a relative viability (NCI-H2342; first compound 1.265 µM) of 0.307. The relative viability (NCI-H2342; first compound 4 µM) was 0.268, the relative viability (NCI-H2085; first compound 0.04 µM) was 0.296 and the relative viability (NCI-H2085; first compound 0.1265 µM) was 0.242. It also gave a relative viability (NCI-H2085; first compound 0.4 µM) of 0.24, a relative viability (NCI-H2085; first compound 1.265 µM) of 0.186 and a relative viability (NCI-H2085; first compound 4 µM) of 0.163. The relative viability (NCI-H2126; first compound 0.04 µM) was 0.617, the relative viability (NCI-H2126; first compound 0.1265 µM) was 0.565 and the relative viability (NCI-H2126; first compound 0.4 µM) was 0.449. For the same compound, the relative viability (NCI-H2126; first compound 1.265 µM) was 0.34, the relative viability (NCI-H2126; first compound 4 µM) was 0.259 and the relative viability (EMC-BAC-2; first compound 0.04 µM) was 0.31. It also gave a relative viability (EMC-BAC-2; first compound 0.1265 µM) of 0.343, a relative viability (EMC-BAC-2; first compound 0.4 µM) of 0.217 and a relative viability (EMC-BAC-2; first compound 1.265 µM) of 0.243. It also gave a relative viability (EMC-BAC-2; first compound 4 µM) of 0.218, a relative viability (NCI-H647; first compound 0.04 µM) of 0.162 and a relative viability (NCI-H647; first compound 0.1265 µM) of 0.216. The relative viability (NCI-H647; first compound 0.4 µM) was 0.114, the relative viability (NCI-H647; first compound 1.265 µM) was 0.0855 and the relative viability (NCI-H647; first compound 4 µM) was 0.112. The relative viability (NCI-H1563; first compound 0.04 µM) was 0.453, the relative viability (NCI-H1563; first compound 0.1265 µM) was 0.445 and the relative viability (NCI-H1563; first compound 0.4 µM) was 0.436. The relative viability (NCI-H1563; first compound 1.265 µM) was 0.367, the relative viability (NCI-H1563; first compound 4 µM) was 0.381 and the relative viability (LXF-289; first compound 0.04 µM) was 0.252. The relative viability (LXF-289; first compound 0.1265 µM) was 0.198, the relative viability (LXF-289; first compound 0.4 µM) was 0.116 and the relative viability (LXF-289; first compound 1.265 µM) was 0.132. For the same compound, the relative viability (LXF-289; first compound 4 µM) was 0.11, the relative viability (NCI-H2009; first compound 0.04 µM) was 0.26 and the relative viability (NCI-H2009; first compound 0.1265 µM) was 0.251. It also gave a relative viability (NCI-H2009; first compound 0.4 µM) of 0.161, a relative viability (NCI-H2009; first compound 1.265 µM) of 0.141 and a relative viability (NCI-H2009; first compound 4 µM) of 0.156. It also gave a relative viability (SK-LU-1; first compound 0.04 µM) of 0.178, a relative viability (SK-LU-1; first compound 0.1265 µM) of 0.182 and a relative viability (SK-LU-1; first compound 0.4 µM) of 0.106. It also gave a relative viability (SK-LU-1; first compound 1.265 µM) of 0.123, a relative viability (SK-LU-1; first compound 4 µM) of 0.0874 and a relative viability (NCI-H322M; first compound 0.04 µM) of 0.247. It also gave a relative viability (NCI-H322M; first compound 0.1265 µM) of 0.194, a relative viability (NCI-H322M; first compound 0.4 µM) of 0.189 and a relative viability (NCI-H322M; first compound 4 µM) of 0.216. It also gave a relative viability (NCI-H1650; first compound 0.04 µM) of 0.324, a relative viability (NCI-H1650; first compound 0.1265 µM) of 0.327 and a relative viability (NCI-H1650; first compound 0.4 µM) of 0.278. For the same compound, the relative viability (NCI-H1650; first compound 1.265 µM) was 0.232, the relative viability (NCI-H1650; first compound 4 µM) was 0.221 and the relative viability (LCLC-97TM1; first compound 0.04 µM) was 0.753. For the same compound, the relative viability (LCLC-97TM1; first compound 0.1265 µM) was 0.956, the relative viability (LCLC-97TM1; first compound 0.4 µM) was 0.481 and the relative viability (LCLC-97TM1; first compound 1.265 µM) was 0.714. For the same compound, the relative viability (LCLC-97TM1; first compound 4 µM) was 0.477.
